The text below walks through data of patent US20210079384A1, “NON-INVASIVE DETECTION OF RESPONSE TO A TARGETED THERAPY” (The Johns Hopkins University, priority 2018, published 2021).

Experiment [1] deals with advanced non-small cell lung cancer (NSCLC) patients. Nature of the experiment: Cell-free tumor load (cfTL) in plasma cfDNA by TEC-Seq during TKI therapy. The conditions noted are these: single patient CGPLLU2 with metastatic disease; osimertinib 80 mg PO daily. Type of experiment: in vivo, human. The source says:
Serial blood was drawn from fifteen advanced non-small cell lung cancer (NSCLC) patients undergoing treatment with targeted tyrosine kinase inhibitors (TKIs), afatinib or osimertinib, to directly detect somatic sequence and structural alterations in cfDNA, to monitor ctDNA dynamics during therapy, to determine cell-free tumor burden, and to predict clinical outcome (FIG. 1). Liquid biopsies were obtained from 11 radiographic responders and four radiographic non-responders immediately prior to treatment (baseline), 6-22 days post treatment, and at serial time points until disease progression. […] Next, changes in cfTL were evaluated within hours to days after treatment compared to baseline and assessed whether cfTL could serve as a marker of patient outcome. […]
For all patients, serial blood draws were collected over the course of treatment with targeted inhibition for isolation of plasma and extraction of cell-free DNA (cfDNA) for genomic analyses. Time points were analyzed immediately prior to treatment for baseline assessment as well as 6-22 days post treatment and at serial time points until disease progression (Table S2).
Sequence and copy number alterations were detected in cfDNA for each patient at each time point analyzed and used a tiered approach to evaluate tumor burden. […]

The test system is the same in experiment [2]. The experiment in a line: Progression-free survival by RECIST 1.1 CT assessment in NSCLC patients on TKI therapy. In kind it is in vivo, human. The conditions noted are these: single patient CGPLLU2 with metastatic disease; osimertinib 80 mg PO daily; subsequently developed resistance in the primary lung lesion. The source says:
Serial blood was drawn from fifteen advanced non-small cell lung cancer (NSCLC) patients undergoing treatment with targeted tyrosine kinase inhibitors (TKIs), afatinib or osimertinib, to directly detect somatic sequence and structural alterations in cfDNA, to monitor ctDNA dynamics during therapy, to determine cell-free tumor burden, and to predict clinical outcome (FIG. 1). Liquid biopsies were obtained from 11 radiographic responders and four radiographic non-responders immediately prior to treatment (baseline), 6-22 days post treatment, and at serial time points until disease progression. The ultrasensitive targeted error correction sequencing (TEC-Seq) approach (6) was used as well as whole genome sequencing to identify tumor-derived sequence alterations and chromosomal copy number changes in cell-free DNA (cfDNA). […] Next, changes in cfTL were evaluated within hours to days after treatment compared to baseline and assessed whether cfTL could serve as a marker of patient outcome.
For each patient, ˜5 ml of plasma were collected immediately prior to therapy (baseline), at 6-22 days after therapy initiation (median 16 days), and at additional serial time points until disease progression was confirmed by radiographic assessment (Tables S1 and S2). Target lesions were evaluated before therapy with CT/MRI imaging and approximately every six weeks until disease progression. […]

As for `C=CC(=O)Nc1cc(Nc2nccc(-c3cn(C)c4ccccc34)n2)c(OC)cc1N(C)CCN(C)C` [osimertinib], the “change of cfTL from baseline to day 10” value in experiment [1] is reported as “rapid decline”. Besides, the progression-free survival in experiment [2] worked out at 7.0 months.
